Experimental data from ChEMBL document CHEMBL1148828, “Deoxycholic acid-derived tetraoxane antimalarials and antiproliferatives(1)” (J Med Chem, 2007).
Activity calls are given as the source filed them. The calls are words filed in the database; no cut-off is given here.

What was measured:
Plasmodium falciparum [1] = experiment: Antimalarial activity against Plasmodium falciparum W2; type: functional, organism-based
Plasmodium falciparum [2] = experiment: Antimalarial activity against Plasmodium falciparum D6; type: functional, organism-based
Plasmodium falciparum [3] = experiment: Antimalarial activity against Plasmodium falciparum TM91C235; type: functional, organism-based
Mus musculus [4] = experiment: Survival of Plasmodium berghei KBG 173 infected CD1 mice (Mus musculus) at 40 mg/kg/day; type: ADME, organism-based; settings: in vivo
Mus musculus [5] = experiment: Survival of Plasmodium berghei KBG 173 infected CD1 mice (Mus musculus) at 20 mg/kg/day; type: ADME, organism-based; settings: in vivo
Liver microsomes = experiment: Metabolic stability in human liver microsomes; type: ADME, Microsome; settings: microsomes
[6] = Metabolic stability in mouse liver microsomes; type: ADME, Microsome
NCI = experiment: Growth inhibition of human NCI DTP 60 cells; type: functional
LOX IMVI = experiment: Antiproliferative activity against human LOX IMVI cells after 48 hrs; type: functional
MDA-MB-435 = experiment: Antiproliferative activity against human MDA-MB-435 cells after 48 hrs; type: functional; settings: for CC50: read-out: LC50 (the source's name)
CAKI-1 = experiment: Antiproliferative activity against human CAKI1 cells after 48 hrs; type: functional; settings: CAKI-1, 48 h
CCRF-CEM = experiment: Antiproliferative activity against human CCRF-CEM cells after 48 hrs; type: functional
NCI-H322M = experiment: Antiproliferative activity against human NCI-H322M cells after 48 hrs; type: functional
OVCAR-3 = experiment: Antiproliferative activity against human OVCAR-3 cells after 48 hrs; type: functional; settings: OVCAR-3, 48 h
Mus musculus [7] = species on record: Mus musculus; experiment: Toxicity in Plasmodium berghei KBG 173 infected CD1 mice (Mus musculus); type: organism-based; settings: mouse, in vivo
HOP-92 = experiment: Antiproliferative activity against human HOP92 cells after 48 hrs; type: functional; settings: Homo sapiens, HOP-92, 48 h
A549 = experiment: Antiproliferative activity against human A549 cells after 48 hrs; type: functional; settings: A549, 48 h
UO-31 = experiment: Antiproliferative activity against human UO31 cells after 48 hrs; type: functional; settings: Homo sapiens, UO-31, 48 h
Plasmodium berghei [8] = experiment: Antimalarial activity as survivors after 31 days in Plasmodium berghei KBG173 infected CD1 mice (Mus musculus) at 80 mg/kg/day; type: functional, organism-based; settings: KBG 173
Mus musculus [9] = experiment: Survival of Plasmodium berghei KBG 173 infected CD1 mice (Mus musculus) at 320 mg/kg/day; type: ADME, organism-based; settings: in vivo
Mus musculus [10] = experiment: Survival of Plasmodium berghei KBG 173 infected CD1 mice (Mus musculus) at 80 mg/kg/day; type: ADME, organism-based; settings: in vivo
NCI-H23 = experiment: Antiproliferative activity against human NCI-H23 cells after 48 hrs; type: functional; settings: NCI-H23, 48 h
SN12C = experiment: Antiproliferative activity against human SN12C cells after 48 hrs; type: functional
ACHN = experiment: Antiproliferative activity against human ACHN cells after 48 hrs; type: functional
HL-60 = experiment: Antiproliferative activity against human HL60 cells after 48 hrs; type: functional; settings: Homo sapiens, HL-60, 48 h
SF-295 = experiment: Antiproliferative activity against human SF295 cells after 48 hrs; type: functional; settings: SF-295, 48 h
SF-539 = experiment: Antiproliferative activity against human SF539 cells after 48 hrs; type: functional; settings: SF-539, 48 h
A498 = experiment: Antiproliferative activity against human A498 cells after 48 hrs; type: functional; settings: A498, 48 h
DU-145 = experiment: Antiproliferative activity against human DU145 cells after 48 hrs; type: functional; settings: DU-145, 48 h
MDA-MB-231 = experiment: Antiproliferative activity against human MDA-MB-231 cells after 48 hrs; type: functional; settings: MDA-MB-231, 48 h
Plasmodium berghei [11] = experiment: Antimalarial activity as survivors after 31 days in Plasmodium berghei KBG173 infected CD1 mice (Mus musculus) at 40 mg/kg/day; type: functional, organism-based; settings: KBG 173
Plasmodium berghei [12] = experiment: Antimalarial activity as survivors after 31 days in Plasmodium berghei KBG173 infected CD1 mice (Mus musculus) at 20 mg/kg/day; type: functional, organism-based; settings: KBG 173
[13] = read-out: LC50 (the source's name)
[14] = Plasmodium falciparum, TM91C235

CC(=O)O[C@H]1C[C@H]2[C@@H]([C@H](OC(C)=O)C[C@@H]3CC4(CC[C@@]32C)OOC2(CCC(C)CC2)OO4)[C@@H]2CC[C@H]([C@H](C)CCC(=O)NCCN(C)C)[C@@]12C (stereo in doubt; 22) [listing 1 of 2 here]
IC50 (Plasmodium falciparum [1]): 16.7 nM
IC90 (Plasmodium falciparum [1]): 24.8 nM
IC50 (Plasmodium falciparum [2]): 18.6 nM
IC90 (Plasmodium falciparum [2]): 27.8 nM
IC50 (Plasmodium falciparum [3]): 12.2 nM
IC90 (Plasmodium falciparum [3]): 18.5 nM
Survival (Mus musculus [4]): 19 days
Survival (Mus musculus [5]): 9 days
t1/2 (Liver microsomes): 0.7 h
half-life ([6]; liver microsomes): 1.28 h
GI50 (NCI): 180 nM
GI50 (LOX IMVI): 183 nM
GI50 (MDA-MB-435): 1530 nM
TGI (MDA-MB-435): 2910 nM
CC50 (MDA-MB-435; Homo sapiens, MDA-MB-435, 48 h): 5520 nM
GI50 (CAKI-1): 1370 nM
TGI (CAKI-1): 2690 nM
CC50 (CAKI-1; [13]): 5290 nM
GI50 (CCRF-CEM): 258 nM
TGI (CCRF-CEM): 725 nM
GI50 (NCI-H322M): 1460 nM
TGI (NCI-H322M): 2790 nM
CC50 (NCI-H322M; [13]): 5340 nM
GI50 (OVCAR-3): 1190 nM
TGI (OVCAR-3): 2470 nM
CC50 (OVCAR-3; [13]): 5110 nM
MCD (Mus musculus [7]): 40 mg/kg/day

CC(=O)O[C@H]1C[C@H]2[C@@H]([C@H](OC(C)=O)C[C@@H]3CC4(CC[C@@]32C)OOC2(CCC(C)CC2)OO4)[C@@H]2CC[C@H]([C@H](C)CCC(=O)Nc3ccccc3)[C@@]12C (stereo in doubt; 21)
IC50 (Plasmodium falciparum [1]): 23.1 nM
IC90 (Plasmodium falciparum [1]): 54.6 nM
IC50 (Plasmodium falciparum [2]): 19.8 nM
IC90 (Plasmodium falciparum [2]): 29.2 nM
IC50 (Plasmodium falciparum [3]): 27.2 nM
IC90 (Plasmodium falciparum [3]): 69.7 nM
GI50 (NCI; Homo sapiens, NCI): 180 nM
GI50 (LOX IMVI): 181 nM
LC50 (concentration killing 50% of cells) (LOX IMVI): 758 nM
TGI (LOX IMVI): 370 nM
GI50 (HOP-92): 266 nM
LC50 (concentration killing 50% of cells) (HOP-92): 8840 nM
TGI (HOP-92): 766 nM
GI50 (A549): 255 nM
TGI (A549): 664 nM
GI50 (UO-31): 222 nM
LC50 (UO-31): > 10000 nM
TGI (UO-31): 487 nM

CC(=O)O[C@H]1C[C@H]2[C@@H]([C@H](OC(C)=O)C[C@@H]3CC4(CC[C@@]32C)OOC2(CCC(C)CC2)OO4)[C@@H]2CC[C@H]([C@H](C)CCC(=O)NCCN(C)C)[C@@]12C (stereo in doubt; 23) [listing 1 of 2 here]
Activity (Plasmodium berghei [8]): inactive

CC(=O)O[C@H]1C[C@H]2[C@@H]([C@H](OC(C)=O)C[C@@H]3CC4(CC[C@@]32C)OOC2(CCC(C)CC2)OO4)[C@@H]2CC[C@H]([C@H](C)CCC(=O)NCCN(C)C)[C@@]12C (stereo in doubt; 23) [listing 2 of 2 here]
IC50 (Plasmodium falciparum [1]): 43.5 nM
IC90 (Plasmodium falciparum [1]): 94 nM
IC50 (Plasmodium falciparum [2]): 43.8 nM
IC90 (Plasmodium falciparum [2]): 71.2 nM
IC50 (Plasmodium falciparum [3]): 39.2 nM
IC90 (Plasmodium falciparum [3]): 102 nM
Survival (Mus musculus [9]): 17 days
Survival (Mus musculus [10]): 11 days
t1/2 (Liver microsomes): 2 h
t1/2 ([6]; microsomes): > 2 h
GI50 (NCI): 57 nM
GI50 (NCI-H23): 318 nM
LC50 (concentration killing 50% of cells) (NCI-H23): 3110 nM
TGI (NCI-H23): 1690 nM
GI50 (LOX IMVI): 57 nM
LC50 (concentration killing 50% of cells) (LOX IMVI; Homo sapiens, LOX IMVI, 48 h): 295 nM
TGI (LOX IMVI; Homo sapiens, LOX IMVI, 48 h): 130 nM
GI50 (SN12C): 606 nM
LC50 (concentration killing 50% of cells) (SN12C): 2720 nM
TGI (SN12C): 1280 nM
GI50 (MDA-MB-435): 650 nM
TGI (MDA-MB-435): 1340 nM
CC50 (MDA-MB-435): 2780 nM
GI50 (HOP-92): 70 nM
LC50 (concentration killing 50% of cells) (HOP-92): 2860 nM
TGI (HOP-92): 695 nM
GI50 (CCRF-CEM): 67 nM
TGI (CCRF-CEM): 151 nM
LC50 (concentration killing 50% of cells) (CCRF-CEM; Homo sapiens, CCRF-CEM, 48 h): 340 nM
GI50 (ACHN): 592 nM
LC50 (concentration killing 50% of cells) (ACHN): 2640 nM
TGI (ACHN): 1250 nM

CC(=O)O[C@H]1C[C@H]2[C@@H](CC[C@@H]3CC4(CC[C@@]32C)OOC2(CCC(C)CC2)OO4)[C@@H]2CC[C@H]([C@H](C)CCC(N)=O)[C@@]12C (stereo in doubt; 12)
IC90 (Plasmodium falciparum [1]): 29.7 nM
IC50 (Plasmodium falciparum [1]; Plasmodium falciparum, W2): 18.8 nM
IC50 (Plasmodium falciparum [2]; Plasmodium falciparum, D6): 13.6 nM
IC90 (Plasmodium falciparum [2]; Plasmodium falciparum, D6): 19 nM
IC50 (Plasmodium falciparum [3]; [14]): 15.7 nM
IC90 (Plasmodium falciparum [3]; [14]): 30.8 nM
GI50 (NCI; Homo sapiens, NCI): 110 nM
GI50 (HL-60): 769 nM
TGI (HL-60): 1840 nM
CC50 (HL-60; [13]): 4410 nM
GI50 (NCI-H23): 660 nM
LC50 (concentration killing 50% of cells) (NCI-H23): 3390 nM
TGI (NCI-H23): 1710 nM
GI50 (SF-295): 524 nM
TGI (SF-295): 1690 nM
CC50 (SF-295; [13]): 3460 nM
TGI (SF-539): 1840 nM
CC50 (SF-539; [13]): 3610 nM
GI50 (LOX IMVI; Homo sapiens, LOX IMVI, 48 h): 111 nM
TGI (LOX IMVI; Homo sapiens, LOX IMVI, 48 h): 259 nM
GI50 (A498): 923 nM
TGI (A498): 1920 nM
CC50 (A498; [13]): 4000 nM
GI50 (SN12C): 833 nM
LC50 (concentration killing 50% of cells) (SN12C): 3000 nM
TGI (SN12C): 1580 nM
GI50 (DU-145): 699 nM
LC50 (concentration killing 50% of cells) (DU-145): 3340 nM
TGI (DU-145): 1730 nM
GI50 (MDA-MB-231): 821 nM
TGI (MDA-MB-231): 1760 nM
CC50 (MDA-MB-231; [13]): 3770 nM
GI50 (MDA-MB-435; Homo sapiens, MDA-MB-435, 48 h): 951 nM
TGI (MDA-MB-435; Homo sapiens, MDA-MB-435, 48 h): 1940 nM
CC50 (MDA-MB-435; Homo sapiens, MDA-MB-435, 48 h): 3960 nM

CC(=O)O[C@H]1C[C@H]2[C@@H](CC[C@@H]3CC4(CC[C@@]32C)OOC2(CCC(C)CC2)OO4)[C@@H]2CC[C@H]([C@H](C)CCC(=O)NCCN(C)C)[C@@]12C (stereo in doubt; 16)
Activity (Plasmodium berghei [11]): inactive

CC(=O)O[C@H]1C[C@H]2[C@@H]([C@H](OC(C)=O)C[C@@H]3CC4(CC[C@@]32C)OOC2(CCC(C)CC2)OO4)[C@@H]2CC[C@H]([C@H](C)CCC(=O)NCCN(C)C)[C@@]12C (stereo in doubt; 22) [listing 2 of 2 here]
Activity (Plasmodium berghei [12]): inactive
